According to ChEMBL document CHEMBL1201862, “PubChem BioAssay data set” (2004):
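Grown in 96-well plates, cells were treated for 48 hours with each compound at five concentrations. Insufficient inhibition: endpoint recorded as highest concentration tested. GI50: concentration for 50% inhibition of growth.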 Calls of active or inactive are those of the source. No stated cut-off is given here; in the data, active = GI50 up to about 1.1 µM and inactive = higher.

Experiments:
Test in all cases: inhibition of tumour cell growth, NCI panel, 48 h
M14 = system: M14
LOX IMVI = system: LOX IMVI
IGROV-1 = system: IGROV-1
SNB-19 = system: SNB-19
NCI-H226 = system: NCI-H226
HT-29 = system: HT-29
T47D = system: T47D
MDA-MB-231 = system: MDA-MB-231
OVCAR-3 = system: OVCAR-3
COLO 205 = system: COLO 205
HCC 2998 = system: HCC 2998
KM12 = system: KM12
MDA-N = system: MDA-N
NCI-H23 = system: NCI-H23
Hs-578T = system: Hs-578T
MCF7 = system: MCF7
UACC-257 = system: UACC-257
UO-31 = system: UO-31
ACHN = system: ACHN
BT-549 = system: BT-549

SMILES | GI50 (M14) | GI50 (LOX IMVI) | GI50 (IGROV-1) | GI50 (SNB-19) | GI50 (NCI-H226) | GI50 (HT-29) | GI50 (T47D) | GI50 (MDA-MB-231) | GI50 (OVCAR-3) | GI50 (COLO 205) | GI50 (HCC 2998) | GI50 (KM12) | GI50 (MDA-N) | GI50 (NCI-H23) | GI50 (Hs-578T) | GI50 (MCF7) | GI50 (UACC-257) | GI50 (UO-31) | GI50 (ACHN) | GI50 (BT-549)
O=C(NNC(=O)c1ccccc1SSc1ccccc1C(=O)NNC(=O)c1ccccc1S)c1ccccc1S | 17.7 µM (inactive) | 11.9 µM (inactive) | 11.6 µM (inactive) | 26.2 µM (inactive) | 42.4 µM (inactive) | 30.3 µM (inactive) | 9.16 µM (inactive) | 19.6 µM (inactive) | 31 µM (inactive) | 36.4 µM (inactive) | 48.2 µM (inactive) | 30.5 µM (inactive) | 20 µM (inactive) | 12.3 µM (inactive) | 0.404 µM (active) | 15.2 µM (inactive) | 27.7 µM (inactive) | 9.95 µM (inactive) | 19.3 µM (inactive) | 13.5 µM (inactive)
C=C(C=O)c1c2c(nc3ccccc13)C(=O)c1ccccc1C2=O | 0.562 µM (active) | 0.316 µM (active) | 0.252 µM (active) | 1.64 µM (inactive) | 0.966 µM (active) | 0.47 µM (active) | 0.646 µM (active) | 1.18 µM (inactive) | 0.398 µM (active) | 1.1 µM (active) | 2.75 µM (inactive) | 1.22 µM (inactive) | 0.202 µM (active) | 0.481 µM (active) | 0.617 µM (active) | 0.429 µM (active) | 1.49 µM (inactive) | 1.11 µM (active) | 0.434 µM (active) | 1.82 µM (inactive)
COC(=O)[C@@H](Cc1ccccc1)N1O[C@]12CCCC[C@@H]2NC(=O)OC(C)(C)C (some centres undefined) | 19.1 µM (inactive) | – | 14.7 µM (inactive) | 74.3 µM (inactive) | 47.3 µM (inactive) | 18.3 µM (inactive) | 24.7 µM (inactive) | 19.5 µM (inactive) | 21.9 µM (inactive) | 26.7 µM (inactive) | 59.6 µM (inactive) | 48 µM (inactive) | 20.4 µM (inactive) | 21.3 µM (inactive) | 21.6 µM (inactive) | 15.2 µM (inactive) | 36.4 µM (inactive) | 14.5 µM (inactive) | 18.5 µM (inactive) | 18.1 µM (inactive)
COc1ccc(/C=C2\N/C(=N\N=C/C(O)C(O)C(O)C(O)CO)NC2=O)cc1 (centres undefined) | 19.4 µM (inactive) | 65.3 µM (inactive) | 73.6 µM (inactive) | – | 39.3 µM (inactive) | 71.8 µM (inactive) | 12.5 µM (inactive) | 32.7 µM (inactive) | 18.6 µM (inactive) | 44.6 µM (inactive) | 11.6 µM (inactive) | 30 µM (inactive) | 20.1 µM (inactive) | 23.6 µM (inactive) | 26.9 µM (inactive) | 23.1 µM (inactive) | 30.1 µM (inactive) | 91 µM (inactive) | 32.2 µM (inactive) | 24.6 µM (inactive)
CCCC(=O)NC(C(=O)OCC)(N1CCOCC1)C(F)(F)F (centres undefined) | > 100 µM (inactive) | > 100 µM (inactive) | > 100 µM (inactive) | > 100 µM (inactive) | > 100 µM (inactive) | > 100 µM (inactive) | > 100 µM (inactive) | > 100 µM (inactive) | > 100 µM (inactive) | > 100 µM (inactive) | > 100 µM (inactive) | > 100 µM (inactive) | > 100 µM (inactive) | > 100 µM (inactive) | > 100 µM (inactive) | > 100 µM (inactive) | > 100 µM (inactive) | > 100 µM (inactive) | > 100 µM (inactive) | > 100 µM (inactive)
CC1=C[C@H]([C@H]2C=C(C)C(C(N)=O)=CN2Cc2c(Cl)cccc2Cl)N(Cc2c(Cl)cccc2Cl)C=C1C(N)=O | > 75 µM (inactive) | > 75 µM (inactive) | – | > 75 µM (inactive) | > 75 µM (inactive) | > 75 µM (inactive) | 37 µM (inactive) | > 75 µM (inactive) | > 75 µM (inactive) | > 75 µM (inactive) | > 75 µM (inactive) | 55.5 µM (inactive) | 48.9 µM (inactive) | > 75 µM (inactive) | > 75 µM (inactive) | > 75 µM (inactive) | 73.8 µM (inactive) | > 75 µM (inactive) | > 75 µM (inactive) | > 75 µM (inactive)
CC(C)(Br)C(Br)CC/C(=C/CBr)CBr.CC(C)(Br)C(Br)CC/C(=C\CBr)CBr (centres undefined) | 2.02 µM (inactive) | 0.13 µM (active) | 3.08 µM (inactive) | 14.4 µM (inactive) | 14.2 µM (inactive) | 3.02 µM (inactive) | 2.76 µM (inactive) | 12 µM (inactive) | – | 3.27 µM (inactive) | 13.5 µM (inactive) | 4.16 µM (inactive) | 2.16 µM (inactive) | 3.41 µM (inactive) | 19.1 µM (inactive) | 3.29 µM (inactive) | 6 µM (inactive) | 14.3 µM (inactive) | 5.83 µM (inactive) | 2.45 µM (inactive)
FC(F)(F)c1ccccc1C1SCC2=Nc3ccccc3CN21 (centres undefined) | 12.2 µM (inactive) | 15.1 µM (inactive) | 16.1 µM (inactive) | 10.1 µM (inactive) | 12.6 µM (inactive) | 16.4 µM (inactive) | 16.8 µM (inactive) | 23.5 µM (inactive) | – | 12.5 µM (inactive) | 14.5 µM (inactive) | 12.9 µM (inactive) | 29.5 µM (inactive) | 11.9 µM (inactive) | 12.3 µM (inactive) | 13.6 µM (inactive) | 15.9 µM (inactive) | 11.8 µM (inactive) | – | 19.3 µM (inactive)
COc1ccc(-c2cc(-c3ccccc3)n(C3OC(COC(C)=O)C(OC(C)=O)C(OC(C)=O)C3OC(C)=O)c(=S)c2C#N)cc1 (centres undefined) | 8 µM (inactive) | 4.51 µM (inactive) | 14.8 µM (inactive) | 11.1 µM (inactive) | 5.87 µM (inactive) | 6.28 µM (inactive) | 4.69 µM (inactive) | 4.79 µM (inactive) | 11.4 µM (inactive) | 11.3 µM (inactive) | 22.3 µM (inactive) | 16.9 µM (inactive) | 8.05 µM (inactive) | 19.3 µM (inactive) | 5.71 µM (inactive) | 25.4 µM (inactive) | – | 9.08 µM (inactive) | 15.2 µM (inactive) | 12.4 µM (inactive)
COc1ccc(/C=C2/S/C(=N\c3ccccc3)N(NC(=O)Cc3ccccc3)C2=O)cc1 | > 100 µM (inactive) | – | > 100 µM (inactive) | > 100 µM (inactive) | > 100 µM (inactive) | > 100 µM (inactive) | > 100 µM (inactive) | > 100 µM (inactive) | > 100 µM (inactive) | > 100 µM (inactive) | > 100 µM (inactive) | > 100 µM (inactive) | > 100 µM (inactive) | > 100 µM (inactive) | > 100 µM (inactive) | > 100 µM (inactive) | > 100 µM (inactive) | 92.3 µM (inactive) | > 100 µM (inactive) | > 100 µM (inactive)
COc1cc(NC=C2C(=O)OC(C)(C)OC2=O)c(OC)c(C)c1OC | > 100 µM (inactive) | > 100 µM (inactive) | > 100 µM (inactive) | > 100 µM (inactive) | > 100 µM (inactive) | > 100 µM (inactive) | > 100 µM (inactive) | > 100 µM (inactive) | > 100 µM (inactive) | > 100 µM (inactive) | > 100 µM (inactive) | > 100 µM (inactive) | > 100 µM (inactive) | > 100 µM (inactive) | > 100 µM (inactive) | > 100 µM (inactive) | > 100 µM (inactive) | > 100 µM (inactive) | > 100 µM (inactive) | > 100 µM (inactive)
COc1cc(N(CCC#N)CCC#N)ccc1/C=C1\SC(=S)NC1=O | > 100 µM (inactive) | > 100 µM (inactive) | > 100 µM (inactive) | > 100 µM (inactive) | > 100 µM (inactive) | > 100 µM (inactive) | > 100 µM (inactive) | > 100 µM (inactive) | > 100 µM (inactive) | > 100 µM (inactive) | > 100 µM (inactive) | > 100 µM (inactive) | > 100 µM (inactive) | > 100 µM (inactive) | > 100 µM (inactive) | > 100 µM (inactive) | > 100 µM (inactive) | > 100 µM (inactive) | > 100 µM (inactive) | > 100 µM (inactive)
c1ccc(C(=NNc2nc3ccccc3o2)c2ccccn2)nc1 | 0.0281 µM (active) | 0.122 µM (active) | – | 0.194 µM (active) | < 0.01 µM (active) | < 0.0164 µM (active) | < 0.01 µM (active) | 0.055 µM (active) | – | < 0.01 µM (active) | 0.0391 µM (active) | 0.148 µM (active) | 0.191 µM (active) | 0.0489 µM (active) | 0.447 µM (active) | < 0.0161 µM (active) | 0.0494 µM (active) | 0.0685 µM (active) | 0.0198 µM (active) | 0.0908 µM (active)
O=C1/C(=C/c2ccccc2)Oc2cc(O)ccc21 | > 100 µM (inactive) | – | > 100 µM (inactive) | > 100 µM (inactive) | > 100 µM (inactive) | > 100 µM (inactive) | > 100 µM (inactive) | > 100 µM (inactive) | > 100 µM (inactive) | > 100 µM (inactive) | > 100 µM (inactive) | > 100 µM (inactive) | > 100 µM (inactive) | > 100 µM (inactive) | > 100 µM (inactive) | > 100 µM (inactive) | > 100 µM (inactive) | > 100 µM (inactive) | > 100 µM (inactive) | > 100 µM (inactive)
